Values of other authors in patent US20020013357A1, “Valdecoxib compositions” (priority 1999, published 2002).

solubility in water: extremely low solubility in water
Structure (SMILES): Cc1onc(-c2ccccc2)c1-c1ccc(S(N)(=O)=O)cc1 [Valdecoxib, 4-(5-methyl-3-phenyl-4-isoxazolyl)benzenesulfonamide]
